As usually defined, the half-life is how long it takes for the measured level to halve. Read a high half-life as slow decline. The term AUC denotes concentration integrated over time. Lower therefore signals low exposure. The term Cmax denotes the peak of the concentration-time curve. In general, MIC refers to the lowest concentration found to suppress growth. Higher therefore signals a need for much substance.

22 molecules from US5116833A, “Antibiotic C-3 dithioacetal-substituted carbapenem compounds, compositions, and methods of use thereof” (Bristol-Myers Squibb Company, priority 1990, dated 1992) can be followed below.

Converted amounts (≈) assume the structure as drawn.

Data set [1] in a line: Half-life (T1/2) in solution at stated pH (chemical stability). The format is physicochemical.
Data set [2] has as its system E. coli A-15119. Nature of the data set: Protective effect in the oral treatment of infected mice, E. coli A-15119. The format is in vivo. As to conditions: Escherichia coli, A15119, intraperitoneal challenge E. coli A-15119, 6 × 10^6 organisms, read-out: PD50/Treatment. The method, then: (§1) In order to illustrate the potent antibacterial activity and significant oral bioavailability of the carbapenems of the present invention, Tables I, II and III show data for in vitro activities (MIC), oral in vivo activities (PD50) and blood levels after oral administration of the representative drugs (Cmax, t1/2 and AUC), respectively.
(§2) The in vivo therapeutic efficacy of the representative compounds after oral administration to mice infected intraperitoneally with 0.5 ml of various bacterial suspension is shown in Table II. The values are given in PD50 (dose in mg/kg to give protection to 50% of the infected mice).

A short description of data set [3]: Blood levels and half-life after oral administration in mice. Type of data set: in vivo. The conditions noted are these: mouse, 50 mg/kg. The protocol:
In order to illustrate the potent antibacterial activity and significant oral bioavailability of the carbapenems of the present invention, Tables I, II and III show data for in vitro activities (MIC), oral in vivo activities (PD50) and blood levels after oral administration of the representative drugs (Cmax, t1/2 and AUC), respectively. Blood levels and the half-life of selected compounds of the present invention after oral administration at 50 mg/kg in mice is shown in Table III.

Data set [4] deals with S. pneumoniae A-9585. The experiment in a line: Protective effect in the oral treatment of infected mice, S. pneumoniae A-9585. The format is in vivo. The conditions noted are these: Streptococcus pneumoniae, A9585, intraperitoneal challenge S. pneumoniae A-9585, 5 × 10^3 organisms, read-out: PD50/Treatment. The method, then:
as §1, §2

Data set [5] relates to P. mirabalis A-9900. Nature of the data set: Protective effect in the oral treatment of infected mice, P. mirabalis A-9900. Type of data set: in vivo. As to conditions: Mus musculus, intraperitoneal challenge P. mirabalis A-9900, 4 × 10^6 organisms, read-out: PD50/Treatment. The protocol:
as §1, §2

Data set [6] concerns Ps. aeur. A9843. Nature of the data set: Minimal Inhibitory Concentration, microtiter broth dilution, Ps. aeur. A9843. Type of data set: cell-based. As to conditions: Nutrient broth, approximately 500,000 CFU/ml, 35° C. overnight.
From the text: as §1
(§3) The determination was done by using microtiter broth dilution using Nutrient broth and final bacterial inoculum of approximately 500,000 CFU/ml from overnight cultures of the bacterium. The microtiter trays were then incubated at 35° C. overnight. The MIC's were determined in μg/ml as the lowest concentration of the drug which inhibits visible growth of the bacterium.

For data set [7], the system named is E. coli A15119. Nature of the data set: Minimal Inhibitory Concentration, microtiter broth dilution, E. coli A15119. Type of data set: cell-based. The conditions noted are these: Escherichia coli, Nutrient broth, approximately 500,000 CFU/ml, 35° C. overnight.
From the text: as §1, §3

Data set [8] relates to Str. Pneu. A9525. The experiment in a line: Minimal Inhibitory Concentration, microtiter broth dilution, Str. Pneu. A9525. The format is cell-based. As to conditions: Nutrient broth, approximately 500,000 CFU/ml, 35° C. overnight.
From the text: as §1, §3
(Broth dilution looks for growth in wells or tubes with falling amounts of substance.)

Data set [9] concerns Staph. aur. PenR. The experiment in a line: Minimal Inhibitory Concentration, microtiter broth dilution, Staph. aur. PenR. Type of data set: cell-based. The conditions noted are these: Nutrient broth, approximately 500,000 CFU/ml, 35° C. overnight.
From the text: as §1, §3

`C[C@@H](O)[C@H]1C(=O)N2C(C(=O)O)=C(SCSCc3cccnc3)[C@H](C)[C@H]12` [Io, (4R,5S,6S)-6-[1'(R)-hydroxyethyl]-4-methyl-3-[[[[(pyridin-3-yl)methyl]thio]methyl]thio]-7-oxo-1-azabicyclo-[3.2.0]hept-2-ene-2-carboxylate] gave a half-life in data set [1] (pH 7.4, 37° C.) of 77 h.

Turning to `CSCSC1=C(C(=O)O)N2C(=O)[C@H]([C@@H](C)O)[C@H]2[C@H]1C` [Ib''], the ED50 in data set [2] was 3.5 mg/kg; in data set [4] it was 1.4 mg/kg; in [5] it was 3.6 mg/kg. This molecule gave an AUC in data set [3] of 21000 ng·h/mL. This molecule also yielded a Cmax in data set [3] of 27000 ng/mL. Moreover, the results for the half-life in data set [3], in data set [1] (pH 2) and in data set [1] (pH 7.4) were 0.417 h, 0.313 h and 75 h, respectively.

On to `C[C@@H](O)[C@H]1C(=O)N2C(C(=O)O)=C(SCSc3ccccn3)[C@H](C)[C@H]12` [If, Sodium (4R,5S,6S)-6-[1'(R)-hydroxyethyl]-4-methyl-3-[[[(pyridin-2-yl)thio]methyl]thio]-7-oxo-1-azabicyclo[3.2.0]hept-2-ene-2-carboxylate], for which the results for the half-life in data set [1] (pH 2) and in data set [1] (pH 7.4) were 0.6 h and 79 h, respectively.

`C[C@@H](O)[C@H]1C(=O)N2C(C(=O)O)=C(SCSc3ccc(Cl)cc3)C[C@H]12` [Ij, (5R,6S)-6-[1'(R)-hydroxyethyl]-3-[[[(p-chlorophenyl)thio]methyl]thio]-7-oxo-1-azabicyclo[3.2.0]hept-2-ene-2-carboxylate] had a half-life in data set [1] (pH 7.4) of 26 h.

Regarding `C[C@@H](O)[C@H]1C(=O)N2C(C(=O)O)=C(SCSc3c(F)c(F)c(F)c(F)c3F)[C@H](C)[C@H]12` [Ir, Sodium (4R,5S,6S)-6-[1'(R)-hydroxyethyl]-4-methyl-3-[[[(2,3,4,5,6-pentafluorophenyl)thio]methyl]thio]-7-oxo-1-azabicyclo[3.2.0]hept-2-ene-2-carboxylate], the half-life in [1] (pH 7.4, 37° C.) is 41 h.

Regarding `C[C@@H](O)[C@H]1C(=O)N2C(C(=O)O)=C(SCSc3cccnc3)C[C@H]12` [Ih, Sodium (5R,6S)-6-[1'(R)-hydroxyethyl]-3-[[[(pyridin-3-yl)thio]methyl]thio]-7-oxo-1-azabicyclo[3.2.0]hept-2-ene-2-carboxylate], the half-life in [1] (pH 2) was 0.0333 h; in data set [1] (pH 7.4), 22 h.

Turning to `C[C@@H](O)[C@H]1C(=O)N2C(C(=O)O)=C(SC[S+](C)[O-])[C@H](C)[C@H]12` (some centres unmarked) [Im], in data set [1] (pH 7.4), the half-life was 46 h.

In the case of `C[C@@H](O)[C@H]1C(=O)N2C(C(=O)O)=C(SC[S+]([O-])Cc3cccnc3)[C@H](C)[C@H]12` (stereo partly drawn) [Ip, (4R,5S,6S)-6-[1'(R)-hydroxyethyl]-4-methyl-3-[[[[(pyridin-3-yl)methyl]sulfinyl]methyl]thio]-7-oxo-1-azabicyclo[3.2.0]hept-2-ene-2-carboxylate], in data set [1] (pH 7.4, 37° C.), the half-life is 43 h.

As to `Cc1nnc(SCSC2=C(C(=O)O)N3C(=O)[C@H]([C@@H](C)O)[C@H]3[C@H]2C)o1` [Icc, (4R,5S,6S)-6-[1'(R)-hydroxyethyl]-4-methyl-3-[[[(5-methyl-1,3,4-oxadiazol-2-yl)thio]methyl]thio]-7-oxo-1-azabicyclo-[3.2.0]hept-2-ene-2-carboxylate], the MIC in data set [6] amounted to 32 µg/mL (≈ 86.2 µM); in [7], 0.004 µg/mL (≈ 0.0108 µM); in data set [8], 0.001 µg/mL (≈ 0.00269 µM); in [9] it was 0.03 µg/mL (≈ 0.0808 µM). Also, the results for the ED50 in [2] and in data set [4] were 1.4 mg/kg and 0.2 mg/kg, respectively. In data set [3], this molecule had an AUC of 11000 ng·h/mL. The Cmax in data set [3] was determined as 20000 ng/mL. The half-life in data set [3] amounted to 0.233 h.

In data set [1] (pH 2), `C[C@@H](O)[C@H]1C(=O)N2C(C(=O)O)=C(SCSc3ccncc3)[C@H](C)[C@H]12` [Ig, (4R,5S,6S)-6-[1'(R)-hydroxyethyl]-4-methyl-3-[[[(pyridin-4-yl)thio]methyl]thio]-7-oxo-1-azabicyclo[3.2.0]hept-2-ene-2-carboxylate] had a half-life of 0.567 h.

Molecule `C[C@@H](O)[C@H]1C(=O)N2C(C(=O)O)=C(SCSc3ccccn3)C[C@H]12` [Ie, Sodium (5R,6S)-6-[1'(R)-1-hydroxyethyl]-3-[[[(pyridin-2-yl)thio]methyl]thio]-7-oxo-1-azabicyclo[3.2.0]hept-2-ene-2-carboxylate] showed a half-life in data set [1] (pH 7.4) of 19 h.

For `C[C@@H](O)[C@H]1C(=O)N2C(C(=O)O)=C(SCSc3ccc(C(=O)NN)cc3)[C@H](C)[C@H]12` [Ibb, (4R,5S,6S)-3-[[[[(p-hydrazinocarbonyl)phenyl]thio]methyl]thio]-6-[1'(R)-hydroxyethyl]-4-methyl-7-oxo-1-azabicyclo[3.2.0]hept-2-ene-2-carboxylate], the Cmax in data set [3] is < 1000 ng/mL. Besides, in data set [4], the ED50 was 16.5 mg/kg.

For `C[C@@H](O)[C@H]1C(=O)N2C(C(=O)O)=C(SC[S+]([O-])c3ccc(Cl)cc3)[C@H](C)[C@H]12` (stereo partly drawn) [In, (4R,5S,6S)-3-[[[(p-chlorophenyl)sulfinyl]methyl]thio]-6-[1'(R)-hydroxyethyl]-4-methyl-7-oxo-1-azabicyclo[3.2.0]hept-2-ene-2-carboxylate], the half-life in [1] (pH 7.4, 37° C.) was 106 h.

As for `C[C@@H](O)[C@H]1C(=O)N2C(C(=O)O)=C(SCSc3ccncc3)C[C@H]12` [Ic, Potassium or sodium (5R,6S)-6-[1'(R)-hydroxyethyl]-3-[[[(pyridin-4-yl)thio]methyl]thio]-7-oxo-1-azabicyclo[3.2.0]hept-2-ene-2-carboxylate], the half-life in data set [1] (pH 7.4) is 15 h.

Turning to `C[C@@H](O)[C@H]1C(=O)N2C(C(=O)O)=C(SCSc3cccnc3)[C@H](C)[C@H]12` [Ii, (4R,5S,6S)-6-[1'(R)-hydroxyethyl]-4-methyl-3-[[[(pyridin-3-yl)thio]methyl]thio]-7-oxo-1-azabicyclo[3.2.0]hept-2-ene-2-carboxylate], the half-life in [1] (pH 2) was 0.583 h; in data set [1] (pH 7.4) it was 74 h.

Turning to `C[C@@H](O)[C@H]1C(=O)N2C(C(=O)O)=C(SCSc3ccccc3)[C@H](C)[C@H]12` [Id, (4R,5S,6S)-6-[1'(R)-hydroxyethyl]-4-methyl-3-[[(phenylthio)methyl]thio]-7-oxo-1-azabicyclo[3.2.0]hept-2-ene-2-carboxylate], the figures for the half-life in data set [1] (pH 2) and in data set [1] (pH 7.4) were 0.313 h and 100 h, respectively.

Consider `C[C@@H](O)[C@H]1C(=O)N2C(C(=O)O)=C(SCSc3ccc(Cl)c(Cl)c3)[C@H](C)[C@H]12` [Iq, (4R,5S,6S)-3-[[[(3,4-dichlorophenyl)thio]methyl]thio]-6-[1'(R)-hydroxyethyl]-4-methyl-7-oxo-1-azabicyclo-[3.2.0]hept-2-ene-2-carboxylate], for which, in [2], the ED50 was 25 mg/kg. In data set [3], this molecule came in with an AUC of 24000 ng·h/mL, a Cmax of 33000 ng/mL and a half-life of 0.417 h. The half-life in [1] (pH 7.4, 37° C.) was 99 h.

On to `CSC(C)SC1=C(C(=O)O)N2C(=O)[C@H]([C@@H](C)O)[C@H]2[C@H]1C` (single isomer, unassigned) [Iv-A], for which, in data set [1] (pH 2, 37° C.), the half-life is 0.333 h.

In data set [1] (pH 7.4), `CSCSC1=C(C(=O)O)N2C(=O)[C@H]([C@@H](C)O)[C@H]2C1` [Ia, Potassium or Sodium (5R,6S)-6-[1'(R)-hydroxyethyl]-3-[[(methylthio)methyl]thio]-7-oxo-1-azabicyclo[3.2.0]hept-2-ene-2-carboxylate] gave a half-life of 20 h.

On to `Cc1nnc(SCSC2=C(C(=O)O)N3C(=O)[C@H]([C@@H](C)O)[C@H]3[C@H]2C)s1` [Idd, (4R,5S,6S)-6-[1'(R)-hydroxyethyl]-4-methyl-3-[[[(5-methyl-1,3,4-thiadiazol-2-yl)thio]methyl]thio]-7-oxo-1-azabicyclo[3.2.0]hept-2-ene-2-carboxylate], for which the MIC in data set [6] amounted to 32 µg/mL (≈ 82.6 µM); in data set [7], 0.008 µg/mL (≈ 0.0206 µM); in data set [8], 0.001 µg/mL (≈ 0.00258 µM); in data set [9], 0.016 µg/mL (≈ 0.0413 µM). Besides, the ED50 in data set [2] was 3.85 mg/kg; in [4] it was 0.3 mg/kg. The molecule also yielded an AUC in data set [3] of 10000 ng·h/mL. For the same molecule, the Cmax in data set [3] was determined as 12000 ng/mL. The molecule also gave a half-life in [3] of 0.4 h.

On to `CSC(C)SC1=C(C(=O)O)N2C(=O)[C@H]([C@@H](C)O)[C@H]2[C@H]1C` (single isomer, unassigned) [Iv-B], for which the T1/2 in [1] (pH 2, 37° C.) amounted to 0.333 h. In data set [1] (pH 7.4, 37° C.), this molecule gave a half-life of 56 h.

As to `C[C@@H](O)[C@H]1C(=O)N2C(C(=O)O)=C(SCSc3ccc(Cl)cc3)[C@H](C)[C@H]12` [Ik, (4R,5S,6S)-6-[1' (R)-hydroxyethyl]-4-methyl-3-[[[(p-chlorophenyl)thio]methyl]thio]-7-oxo-1-azabicyclo[3.2.0]hept-2-ene-2-carboxylate], the MIC in [6] turned out to be 63 µg/mL (≈ 158 µM); in data set [7] it was 2 µg/mL (≈ 5 µM); in [8], 0.004 µg/mL (≈ 0.01 µM); in [9] it was 0.03 µg/mL (≈ 0.075 µM). The molecule also showed an AUC in data set [3] of 34000 ng·h/mL. In data set [3], this molecule showed a Cmax of 40000 ng/mL. Also, the half-life in [3] is 0.55 h; in [1] (pH 7.4), 97 h.
